Data reported in ChEMBL document CHEMBL1201862, “PubChem BioAssay data set” (2004).
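48-hour exposure; five concentrations; linearly interpolated endpoints. GI50 is the concentration that inhibits growth by half.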 Active and inactive are the calls of the source. No stated cut-off is given here; in the data, active = GI50 up to about 1.1 µM and inactive = higher.

What was measured:
Test in all cases: growth of human tumour cells (NCI), 48 h
786-0 = tested on: 786-0
CAKI-1 = tested on: CAKI-1
DU-145 = tested on: DU-145
EKVX = tested on: EKVX
HL-60 = tested on: HL-60
HOP-92 = tested on: HOP-92
KM12 = tested on: KM12
M14 = tested on: M14
MCF7 = tested on: MCF7
MDA-MB-435 = tested on: MDA-MB-435
NCI-H23 = tested on: NCI-H23
SF-268 = tested on: SF-268
SF-295 = tested on: SF-295
SK-MEL-5 = tested on: SK-MEL-5
SNB-19 = tested on: SNB-19
SNB-75 = tested on: SNB-75
SR = tested on: SR
TK-10 = tested on: TK-10
UACC-257 = tested on: UACC-257
UO-31 = tested on: UO-31

Row | SMILES | GI50 (786-0) | GI50 (CAKI-1) | GI50 (DU-145) | GI50 (EKVX) | GI50 (HL-60) | GI50 (HOP-92) | GI50 (KM12) | GI50 (M14) | GI50 (MCF7) | GI50 (MDA-MB-435) | GI50 (NCI-H23) | GI50 (SF-268) | GI50 (SF-295) | GI50 (SK-MEL-5) | GI50 (SNB-19) | GI50 (SNB-75) | GI50 (SR) | GI50 (TK-10) | GI50 (UACC-257) | GI50 (UO-31)
1 | COc1cnc2cc(C(=O)O)c3c([N+](=O)[O-])cccc3c2c1 | > 100 µM (inactive) | > 100 µM (inactive) | > 100 µM (inactive) | > 100 µM (inactive) | > 100 µM (inactive) | > 100 µM (inactive) | > 100 µM (inactive) | > 100 µM (inactive) | > 100 µM (inactive) | > 100 µM (inactive) | > 100 µM (inactive) | > 100 µM (inactive) | > 100 µM (inactive) | > 100 µM (inactive) | > 100 µM (inactive) | > 100 µM (inactive) | > 100 µM (inactive) | > 100 µM (inactive) | > 100 µM (inactive) | > 100 µM (inactive)
2 | CCN(CC)CCNc1ccc2ncn3c4c(OC)ccc(O)c4c(=O)c1c23 | 8.93 µM (inactive) | 32.1 µM (inactive) | 19.3 µM (inactive) | 46.8 µM (inactive) | 30.8 µM (inactive) | 2.74 µM (inactive) | 8.17 µM (inactive) | 13.6 µM (inactive) | 3.52 µM (inactive) | 24.9 µM (inactive) | 21.8 µM (inactive) | 6.49 µM (inactive) | 16.6 µM (inactive) | 9.51 µM (inactive) | 19.6 µM (inactive) | 46.3 µM (inactive) | 1.63 µM (inactive) | 33 µM (inactive) | > 100 µM (inactive) | 33.7 µM (inactive)
3 | CC1CN(CCO)CCN1c1ccccc1 (stereo not given) | > 100 µM (inactive) | > 100 µM (inactive) | > 100 µM (inactive) | > 100 µM (inactive) | 42 µM (inactive) | > 100 µM (inactive) | > 100 µM (inactive) | > 100 µM (inactive) | > 100 µM (inactive) | > 100 µM (inactive) | > 100 µM (inactive) | > 100 µM (inactive) | > 100 µM (inactive) | > 100 µM (inactive) | > 100 µM (inactive) | > 100 µM (inactive) | > 100 µM (inactive) | > 100 µM (inactive) | > 100 µM (inactive) | > 100 µM (inactive)
4 | Oc1ccccc1-n1nc2ccc3nonc3c2n1 | > 100 µM (inactive) | > 100 µM (inactive) | > 100 µM (inactive) | 48.1 µM (inactive) | > 100 µM (inactive) | > 100 µM (inactive) | 30.3 µM (inactive) | > 100 µM (inactive) | > 100 µM (inactive) | > 100 µM (inactive) | > 100 µM (inactive) | > 100 µM (inactive) | > 100 µM (inactive) | > 100 µM (inactive) | > 100 µM (inactive) | > 100 µM (inactive) | > 100 µM (inactive) | > 100 µM (inactive) | > 100 µM (inactive) | 77.4 µM (inactive)
5 | COc1cc(NCCC2CCCCN2)c2ncccc2c1 (stereo not given) | > 82 µM (inactive) | > 77.1 µM (inactive) | > 76.9 µM (inactive) | > 100 µM (inactive) | 3.56 µM (inactive) | 60.8 µM (inactive) | 60.4 µM (inactive) | 21.5 µM (inactive) | 0.31 µM (active) | 26.4 µM (inactive) | > 100 µM (inactive) | > 92.7 µM (inactive) | 67.1 µM (inactive) | 25.1 µM (inactive) | > 100 µM (inactive) | 60.3 µM (inactive) | 27.3 µM (inactive) | > 73.6 µM (inactive) | 19.4 µM (inactive) | 57.1 µM (inactive)
6 | Cc1ccc(C(=O)/C=C/N2CCN(c3cccc(C(F)(F)F)c3)CC2)cc1 | 18.2 µM (inactive) | 17.8 µM (inactive) | 16 µM (inactive) | 18.7 µM (inactive) | 22.8 µM (inactive) | 27.1 µM (inactive) | 18.7 µM (inactive) | 16.9 µM (inactive) | 18 µM (inactive) | 16.9 µM (inactive) | 16.8 µM (inactive) | 17.3 µM (inactive) | 17.5 µM (inactive) | 14.9 µM (inactive) | 30.1 µM (inactive) | 16.9 µM (inactive) | 19.8 µM (inactive) | 25.3 µM (inactive) | 16.4 µM (inactive) | 17.5 µM (inactive)
7 | CCOC(=O)c1c(SCCO)n(-c2ccccc2)c(=S)n(-c2ccccc2)c1=O | > 100 µM (inactive) | > 100 µM (inactive) | > 100 µM (inactive) | > 100 µM (inactive) | > 100 µM (inactive) | > 100 µM (inactive) | > 100 µM (inactive) | > 100 µM (inactive) | > 100 µM (inactive) | > 100 µM (inactive) | > 100 µM (inactive) | > 100 µM (inactive) | > 100 µM (inactive) | > 100 µM (inactive) | > 100 µM (inactive) | > 100 µM (inactive) | > 100 µM (inactive) | > 100 µM (inactive) | > 100 µM (inactive) | > 100 µM (inactive)
